# Laboratory results taken from the supplement of paper PMC10883282.
# ± gives the standard deviation of the averaged measurements.
# Test system: G401
# Assay: relative viability vs DMSO control (72 h) (fraction); higher = more viable cells
# How it was run: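 Relative viability was measured with ATPLite and expressed as percent growth, averaged across up to triplicate wells. Sarcoma cell lines had been seeded in 384-well plates to reach 80–90% confluence, dosed after 24 h, and incubated 72 h at 37 °C, 5% CO2. All data were rescaled on a scale where 1 is full and 0 is none.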
Structure (SMILES),relative viability (0.00017 µM),relative viability (0.00051 µM),relative viability (0.00152 µM),relative viability (0.00457 µM),relative viability (0.01372 µM),relative viability (0.04115 µM),relative viability (0.1235 µM),relative viability (0.3704 µM),relative viability (1.111 µM),relative viability (3.333 µM),relative viability (10 µM)
CCN1CCN(Cc2ccc(Nc3ncc(F)c(-c4cc(F)c5nc(C)n(C(C)C)c5c4)n3)nc2)CC1 [Abemaciclib],0.985 ± 0.03,0.964 ± 0.018,0.924 ± 0.048,0.922 ± 0.061,0.857 ± 0.051,0.822 ± 0.037,0.796 ± 0.044,0.786 ± 0.048,0.758 ± 0.017,0.746 ± 0.037,0.6941 ± 0.0055
CC(C)NC(=O)C1CCC(n2c(NC(=O)c3ccc(F)cc3)nc3ccc(CN4CCC(C(C)(C)O)CC4)cc32)CC1 (stereo not drawn) [Belizatinib],1.01 ± 0.043,0.997 ± 0.054,1.01 ± 0.061,1 ± 0.064,1.02 ± 0.022,1.01 ± 0.015,0.974 ± 0.038,0.877 ± 0.026,0.606 ± 0.015,0.305 ± 0.027,0.154 ± 0.02
CC[C@H](Nc1ncnc2[nH]cnc12)c1nc2cccc(F)c2c(=O)n1-c1ccccc1 [Idelalisib],1.06 ± 0.034,1.07 ± 0.036,1.06 ± 0.051,1.05 ± 0.017,1.02 ± 0.032,0.998 ± 0.036,0.987 ± 0.042,0.965 ± 0.021,0.946 ± 0.013,0.877 ± 0.045,0.795 ± 0.023
CC(C)(C)c1cc(NC(=O)Nc2ccc(-c3cn4c(n3)sc3cc(OCCN5CCOCC5)ccc34)cc2)no1 [Quizartinib],1.02 ± 0.04,1.01 ± 0.017,1.05 ± 0.048,1.06 ± 0.026,1.04 ± 0.039,0.984 ± 0.052,1 ± 0.013,0.926 ± 0.011,0.971 ± 0.021,0.945 ± 0.051,0.87 ± 0.023
Cc1cnc(Nc2ccc(OCCN3CCCC3)cc2)nc1Nc1cccc(S(=O)(=O)NC(C)(C)C)c1 [Fedratinib],1.029 ± 0.0083,1.05 ± 0.029,1.038 ± 0.0091,1.03 ± 0.019,1.04 ± 0.011,0.997 ± 0.024,0.919 ± 0.015,0.8157 ± 0.0074,0.499 ± 0.0075,0.204 ± 0.012,0.0136 ± 0.00091
CC1(C)CNc2cc(NC(=O)c3cccnc3NCc3ccncc3)ccc21 [Motesanib],0.984 ± 0.047,0.982 ± 0.042,0.973 ± 0.019,0.955 ± 0.03,0.979 ± 0.015,0.962 ± 0.022,0.949 ± 0.022,0.934 ± 0.036,0.9058 ± 0.0034,0.84 ± 0.034,0.684 ± 0.02
Nc1cc(C(F)(F)F)c(-c2cc(N3CCOCC3)nc(N3CCOCC3)n2)cn1 [Buparlisib],0.957 ± 0.011,0.983 ± 0.013,0.932 ± 0.024,0.966 ± 0.022,1 ± 0.027,0.928 ± 0.041,0.86 ± 0.027,0.767 ± 0.037,0.594 ± 0.014,0.304 ± 0.005,0.237 ± 0.0068
Cc1cc(C)c(/C=C2\C(=O)Nc3ccccc32)[nH]1 [Semaxanib],0.957 ± 0.044,0.981 ± 0.031,0.957 ± 0.043,0.976 ± 0.037,0.964 ± 0.036,0.948 ± 0.019,0.9755 ± 0.0068,0.9895 ± 0.0091,0.932 ± 0.046,0.904 ± 0.05,0.813 ± 0.067
CCc1cc2c(cc1N1CCC(N3CCOCC3)CC1)C(C)(C)c1[nH]c3cc(C#N)ccc3c1C2=O [Alectinib],0.947 ± 0.037,0.983 ± 0.023,0.977 ± 0.028,0.991 ± 0.037,0.981 ± 0.026,0.954 ± 0.029,1.01 ± 0.031,1.01 ± 0.056,1.03 ± 0.057,0.991 ± 0.039,0.894 ± 0.037
Cn1cnc2c(F)c(Nc3ccc(Br)cc3F)c(C(=O)NOCCO)cc21 [Binimetinib],1.01 ± 0.025,1.05 ± 0.019,1.03 ± 0.033,1.01 ± 0.011,0.983 ± 0.023,0.904 ± 0.0051,0.886 ± 0.029,0.859 ± 0.021,0.782 ± 0.02,0.716 ± 0.046,0.584 ± 0.038
C=CC(=O)Nc1cccc(Oc2nc(Nc3ccc(N4CCN(C)CC4)cc3)nc3ccsc23)c1 [Olmutinib],0.984 ± 0.021,0.976 ± 0.048,0.969 ± 0.022,0.984 ± 0.039,0.96 ± 0.03,0.986 ± 0.043,1 ± 0.041,1.01 ± 0.043,0.916 ± 0.018,0.759 ± 0.019,0.481 ± 0.036
CN1CCN(c2ccc3nc(-c4c(N)c5c(F)cccc5[nH]c4=O)[nH]c3c2)CC1 [Dovitinib],1.02 ± 0.045,1.014 ± 0.0059,1.04 ± 0.021,1.018 ± 0.0017,1 ± 0.023,1.01 ± 0.051,0.966 ± 0.034,0.92 ± 0.019,0.632 ± 0.069,0.256 ± 0.013,0.13 ± 0.0053
O=C(Cc1ccc(-c2ccc(OCCN3CCOCC3)cc2)cn1)NCc1ccccc1 [KX2-391],1.05 ± 0.047,1.05 ± 0.025,1.02 ± 0.033,1.05 ± 0.036,1.022 ± 0.0094,0.944 ± 0.027,0.555 ± 0.019,0.446 ± 0.013,0.421 ± 0.013,0.38 ± 0.014,0.368 ± 0.0095
C[C@@H]1COCCN1c1cc(-c2ccnn2C)c2ccnc(-c3ccn[nH]3)c2n1,0.996 ± 0.018,0.9815 ± 0.0068,1 ± 0.011,1.01 ± 0.023,0.997 ± 0.02,0.915 ± 0.026,0.803 ± 0.043,0.675 ± 0.0044,0.598 ± 0.0066,0.517 ± 0.012,0.486 ± 0.012
CNC(=O)c1cc(Oc2ccc(NC(=O)Nc3ccc(Cl)c(C(F)(F)F)c3)c(F)c2)ccn1 [Regorafenib],1.05 ± 0.058,1.06 ± 0.077,1.09 ± 0.071,1.07 ± 0.025,1.07 ± 0.032,1.07 ± 0.071,1.02 ± 0.058,0.888 ± 0.088,0.821 ± 0.056,0.609 ± 0.062,0.431 ± 0.029
Cc1ccc(NC(=O)c2ccc(CN3CCN(C)CC3)cc2)cc1Nc1nc(-c2cccnc2)cs1 [Masitinib],0.973 ± 0.058,0.9736 ± 0.0054,0.9669 ± 0.0091,0.9556 ± 0.0058,0.979 ± 0.026,0.971 ± 0.047,0.931 ± 0.024,0.843 ± 0.056,0.687 ± 0.0084,0.388 ± 0.014,0.0983 ± 0.005
CNC(=O)c1ccc(-c2cnc3ncc(Cc4ccc5ncccc5c4)n3n2)cc1F [Capmatinib],1.01 ± 0.023,0.988 ± 0.024,1.03 ± 0.027,1.04 ± 0.019,0.977 ± 0.03,1.01 ± 0.058,0.9706 ± 0.0066,1.02 ± 0.0027,0.981 ± 0.01,0.929 ± 0.012,0.877 ± 0.053
CCCS(=O)(=O)Nc1ccc(F)c(C(=O)c2c[nH]c3ncc(-c4ccc(Cl)cc4)cc23)c1F [Vemurafenib],1.01 ± 0.0022,1.02 ± 0.016,1.01 ± 0.017,1.004 ± 0.01,1.01 ± 0.024,1 ± 0.03,1.02 ± 0.0078,1.031 ± 0.0097,1.01 ± 0.011,1.01 ± 0.021,0.753 ± 0.023
